Where two headings read alike, the source gives them in different places.
How the values were obtained:
Type in all cases: in vivo
Phytophthora infestans = conditions: tomato late blight
Pyricularia oryzae = conditions: rice blast
Puccinia recondita = assay: Test B: wheat leaf rust, preventive spray on wheat seedlings; conditions: wheat leaf rust
Protocol: (§1) The resulting test suspensions were then used in the following tests. […]
(§2) The test suspension was sprayed to the point of run-off on wheat seedlings. The following day the seedlings were inoculated with a spore suspension of Puccinia recondita (the causal agent of wheat leaf rust) and incubated in a saturated atmosphere at 20° C. for 24 h, and then moved to a growth chamber at 20° C. for 6 days, after which disease ratings were made.
(§3) Results for Tests A-E are given in Table A. In the table, a rating of 100 indicates 100% disease control and a rating of 0 indicates no disease control (relative to the controls). A dash (-) indicates no test results. ND indicates disease control not determined due to phytotoxicity.

[1] = system: Eiysiphe graminis f. sp. tritici; assay: Test A: wheat powdery mildew, preventive spray on wheat seedlings; conditions: wheat powdery mildew
Protocol: as §1
The test suspension was sprayed to the point of run-off on wheat seedlings. The following day the seedlings were inoculated with a spore dust of Eiysiphe graminis f. sp. tritici, (the causal agent of wheat powdery mildew) and incubated in a growth chamber at 20° C. for 7 days, after which disease ratings were made.
as §3

Botrytis cinerea = assay: Test E: gray mold, preventive spray on cucumber seedlings; conditions: gray mold on cucumber
Protocol: The resulting test suspensions were then used in the following tests. Spraying these 200 ppm test suspensions to the point of run-off on the test plants is the equivalent of a rate of 500 g/ha.
as §2, with “cucumber” for “wheat”, “Botrytis cinerea” for “Puccinia recondita”, “gray mold on many crops)” for “wheat leaf rust)”, “48” for “24”, “and” for “and then”, “5” for “6”
as §3

[2] = 100 = 100% disease control, 0 = no control, unmarked entries (standard test concentration)
[3] = 100 = 100% disease control, 0 = no control relative to controls, unmarked entries (standard test concentration)

Row | SMILES | Test D disease control rating (Phytophthora infestans; [2]) [%] | Test C disease control rating (Pyricularia oryzae; [2]) [%] | Test B disease control rating (Puccinia recondita; [2]) [%] | Test A disease control rating [1, 3] [%] | Test E disease control rating (Botrytis cinerea; [2]) [%] | further results
1 | CC(COc1ccccc1F)NC(=O)C(C#N)C(C)(C)C (mixture of isomers) [2a] | 0 | 0 | 0 | 0 | 55 | 
2 | CC(COc1cccc(F)c1)NC(=O)C(C#N)C(C)(C)C (mixture of isomers) [3a] | 0 | 94 | 0 | 85 | 55 | 
3 | CC(COc1ccc(F)cc1)NC(=O)C(C#N)C(C)(C)C (mixture of isomers) [4c] | 0 | 94 | 0 | 35 | 58 | 
4 | CC(COc1ccccc1Cl)NC(=O)C(C#N)C(C)(C)C (mixture of isomers) [5a] | 0 | 0 | 68 | 0 | 0 | 
5 | CC(COc1ccccc1Cl)NC(=O)C(C#N)C(C)(C)C (mixture of isomers) [5b] | 24 | 100 | 86 | 0 | 0 | 
6 | CC(COc1cccc(Cl)c1)NC(=O)C(C#N)C(C)(C)C (mixture of isomers) [6b] | 4 | 53 | 68 | 38 | 0 | 
7 | CC(COc1ccccc1Br)NC(=O)C(C#N)C(C)(C)C (mixture of isomers) [8a] | 0 | 85 | 0 | 0 | 7 | 
8 | CC(COc1cccc(Br)c1)NC(=O)C(C#N)C(C)(C)C (mixture of isomers) [9a] | 0 | 53 | 0 | 0 | 0 | 
9 | CC(COc1ccccc1I)NC(=O)C(C#N)C(C)(C)C (mixture of isomers) [11a] | 0 | 97 | 0 | 77 | 82 | 
10 | CC(COc1ccccc1I)NC(=O)C(C#N)C(C)(C)C (mixture of isomers) [11b] | 23 | 99 | 85 | 77 | 0 | 
11 | CC(COc1ccccc1C#N)NC(=O)C(C#N)C(C)(C)C (mixture of isomers) [13a] | 0 | 51 | 0 | 34 | 0 | 
12 | CC(COc1ccccc1C(F)(F)F)NC(=O)C(C#N)C(C)(C)C (mixture of isomers) [17a] | 16 | 30 | 67 | 85 | 0 | 
13 | CC(COc1ccccc1C(F)(F)F)NC(=O)C(C#N)C(C)(C)C (mixture of isomers) [17b] | 0 | 100 | 28 | 38 | 0 | 
14 | CCc1ccccc1OCC(C)NC(=O)C(C#N)C(C)(C)C (mixture of isomers) [20a] | 70 | 97 | 0 | 63 | 0 | 
15 | CCc1ccccc1OCC(C)NC(=O)C(C#N)C(C)(C)C (mixture of isomers) [20b] | 0 | 100 | 0 | 0 | 0 | 
16 | CCCc1ccccc1OCC(C)NC(=O)C(C#N)C(C)(C)C (mixture of isomers) [21a] | 4 | 99 | 68 | 38 | 0 | 
17 | C=CCc1ccccc1OCC(C)NC(=O)C(C#N)C(C)(C)C (mixture of isomers) [25a] | 0 | 32 | 28 | 95 | 0 | 
18 | C=CCc1ccccc1OCC(C)NC(=O)C(C#N)C(C)(C)C (mixture of isomers) [25b] | 24 | 97 | 0 | 63 | 0 | 
19 | CC(COc1c(F)cccc1F)NC(=O)C(C#N)C(C)(C)C (mixture of isomers) [29a] | 35 | 74 | 0 | 0 | 6 | 
20 | CC(COc1c(F)cccc1F)NC(=O)C(C#N)C(C)(C)C (mixture of isomers) [29b] | 23 | 100 | 0 | 0 | 0 | 
21 | Cc1c(Cl)cc(C#N)n1OCC(C)NC(=O)C(C#N)C(C)C(C)(C)C (mixture of isomers) [71a] | 19 | 53 | 0 | 0 | 0 | 
22 | Cc1c(Cl)cc(C#N)n1OCC(C)NC(=O)C(C#N)C(C)C(C)(C)C (mixture of isomers) [71b] |  |  |  |  |  | Test D disease control rating (Phytophthora infestans; tested at 100 ppm): 19%; Test C disease control rating (Pyricularia oryzae; tested at 100 ppm): 0%; Test B disease control rating (Puccinia recondita; tested at 100 ppm): 0%; Test A disease control rating ([1]; tested at 100 ppm): 0%; Test E disease control rating (Botrytis cinerea; tested at 100 ppm): 0%
23 | CCC1(C(=O)NC(C)COc2ccccc2)C(C)C1(Cl)Cl (mixture of isomers) [77b] |  |  |  |  |  | Test D disease control rating (Phytophthora infestans; tested at 40 ppm): 0%; Test C disease control rating (Pyricularia oryzae; tested at 40 ppm): 74%; Test B disease control rating (Puccinia recondita; tested at 40 ppm): 0%; Test A disease control rating ([1]; tested at 40 ppm): 33%; Test E disease control rating (Botrytis cinerea; tested at 40 ppm): 0%
24 | CCC1(C(=O)NC(C)COc2ccccc2F)C(C)C1(Cl)Cl (mixture of isomers) [78a] | 0 | 90 | 93 | 0 | 74 | 
25 | CCC1(C(=O)NC(C)COc2cccc(F)c2)C(C)C1(Cl)Cl (mixture of isomers) [79a] |  |  |  |  |  | Test D disease control rating (Phytophthora infestans; tested at 40 ppm): 0%; Test C disease control rating (Pyricularia oryzae; tested at 40 ppm): 53%; Test B disease control rating (Puccinia recondita; tested at 40 ppm): 0%; Test A disease control rating ([1]; tested at 40 ppm): 0%; Test E disease control rating (Botrytis cinerea; tested at 40 ppm): 0%
26 | CCC1(C(=O)NC(C)COc2cccc(F)c2)C(C)C1(Cl)Cl (mixture of isomers) [79b] |  |  |  |  |  | Test D disease control rating (Phytophthora infestans; tested at 40 ppm): 0%; Test C disease control rating (Pyricularia oryzae; tested at 40 ppm): 100%; Test B disease control rating (Puccinia recondita; tested at 40 ppm): 0%; Test A disease control rating ([1]; tested at 40 ppm): 0%; Test E disease control rating (Botrytis cinerea; tested at 40 ppm): 0%
27 | CCC1(C(=O)NC(C)COc2ccc(F)cc2)C(C)C1(Cl)Cl (mixture of isomers) [80a] |  |  |  |  |  | Test D disease control rating (Phytophthora infestans; tested at 40 ppm): 20%; Test C disease control rating (Pyricularia oryzae; tested at 40 ppm): 86%; Test B disease control rating (Puccinia recondita; tested at 40 ppm): 0%; Test A disease control rating ([1]; tested at 40 ppm): 0%; Test E disease control rating (Botrytis cinerea; tested at 40 ppm): 0%
28 | CCC1(C(=O)NC(C)COc2ccc(F)cc2)C(C)C1(Cl)Cl (mixture of isomers) [80b] |  |  |  |  |  | Test D disease control rating (Phytophthora infestans; tested at 40 ppm): 0%; Test C disease control rating (Pyricularia oryzae; tested at 40 ppm): 97%; Test B disease control rating (Puccinia recondita; tested at 40 ppm): 0%; Test A disease control rating ([1]; tested at 40 ppm): 83%; Test E disease control rating (Botrytis cinerea; tested at 40 ppm): 0%
29 | CCC1(C(=O)NC(C)COc2ccccc2Cl)C(C)C1(Cl)Cl (mixture of isomers) [81a] | 0 | 0 | 0 | 0 | 55 | 
30 | CCC1(C(=O)NC(C)COc2ccccc2Cl)C(C)C1(Cl)Cl (mixture of isomers) [81b] |  |  |  |  |  | Test D disease control rating (Phytophthora infestans; tested at 40 ppm): 0%; Test C disease control rating (Pyricularia oryzae; tested at 40 ppm): 74%; Test B disease control rating (Puccinia recondita; tested at 40 ppm): 0%; Test A disease control rating ([1]; tested at 40 ppm): 85%; Test E disease control rating (Botrytis cinerea; tested at 40 ppm): 0%

Source: patent US6642392B1 (priority 1997, dated 2003)
